# Test system: yeast-like fungi
# Test: MIC / MFC for yeast-like fungi, all strains
# Type: cell-based, Candida, Cryptococcus, Saccharomyces, Torulopsis
# Details: versus susceptible strains; read-out: Mean MIC values
# Summary of the method: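 Candida, Cryptococcus, Saccharomyces and Torulopsis strains tested by broth microdilution in Yeast Nitrogen Base with 0.15% asparagine and 1.0% glucose, buffered with 0.165 M MOPS; final inoculum about 5.0×10^4 CFU/ml from overnight (Cryptococcus 48-hour) Sabouraud cultures. MFC from spot-transfer of wells without visible growth onto Sabouraud agar.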
smiles,measurement,value
"CCCCCCCCCCCOC(=O)C[C@H](C[N+](C)(C)C)OC(=O)CC(C)C [ST 722, isovaleryl-L-carnitine undecyl ester chloride]",MIC,3.76 µg/mL
